Reference: ChEMBL document CHEMBL3885881, “DrugMatrix”

Organism: Rattus norvegicus
Experiment: DrugMatrix - Regimen: Daily Repeat
Type: toxicity, organism-based, Sprague-Dawley
Parameters: regimen Daily Repeat, gender Male, age 6-8 weeks
Conditions: in vivo, po, route oral GAVAGE, vehicle 100 % WATER; for ABSOLUTE BASOPHIL / ABSOLUTE EOSINOPHIL / ABSOLUTE LYMPHOCYTE / ABSOLUTE MONOCYTE / ABSOLUTE SEGMENTED NEUTROPHIL / BASOPHIL / EOSINOPHIL / ERYTHROCYTE COUNT / HEMATOCRIT / HEMOGLOBIN / LEUKOCYTE COUNT / LYMPHOCYTE / MEAN CORPUSCULAR HEMOGLOBIN / MEAN CORPUSCULAR HEMOGLOBIN CONCENTRATION / MEAN CORPUSCULAR VOLUME / MONOCYTE / NEUTROPHIL / NUCLEATED RED BLOOD CELLS / PLATELET COUNT: tissue Blood; for ALANINE AMINOTRANSFERASE / ALBUMIN / ALKALINE PHOSPHATASE / ASPARTATE AMINOTRANSFERASE / BLOOD UREA NITROGEN / CARBON DIOXIDE / CHLORIDE / CHOLESTEROL / CREATINE PHOSPHOKINASE / CREATININE / GLUCOSE / LIPASE / PHOSPHORUS / POTASSIUM / SODIUM / TOTAL BILIRUBIN / TOTAL PROTEIN / URIC ACID: tissue Plasma
[1] = 175 mg/kg, 120 h, dose level High, time 5 day
[2] = […], 72 h, dose 5.7 mg/Kg, dose level Low, time 3 day
[3] = […], 120 h, dose 5.7 mg/Kg, dose level Low, time 5 day

SMILES: CC(C)NCC(O)COc1cccc2ccccc12 (stereo unspecified) [PROPRANOLOL]
- ABSOLUTE BASOPHIL [1]: 0 CELLS/uL
- ABSOLUTE EOSINOPHIL [1]: 0 CELLS/uL
- ABSOLUTE LYMPHOCYTE [1]: 13526.33 CELLS/uL
- ABSOLUTE MONOCYTE [1]: 232.67 CELLS/uL
- ABSOLUTE SEGMENTED NEUTROPHIL [1]: 741 CELLS/uL
- BASOPHIL [1]: 0%
- EOSINOPHIL [1]: 0%
- ERYTHROCYTE COUNT [1]: 5.28 x10E6/uL
- HEMATOCRIT [1]: 34.3%
- HEMOGLOBIN [1]: 13.2 G/DL
- LEUKOCYTE COUNT [1]: 14.5 x10E3/uL
- LYMPHOCYTE [1]: 93.33%
- MEAN CORPUSCULAR HEMOGLOBIN [1]: 25 pg
- MEAN CORPUSCULAR HEMOGLOBIN CONCENTRATION [1]: 38.5 G/DL
- MEAN CORPUSCULAR VOLUME [1]: 65 fL
- MONOCYTE [1]: 1.67%
- NEUTROPHIL [1]: 5%
- NUCLEATED RED BLOOD CELLS [1]: 0 /100WBC
- PLATELET COUNT [1]: 1299 x10E3/uL
- ALANINE AMINOTRANSFERASE [1]: 57.33 u/L
- ALBUMIN [1]: 3.97 G/DL
- ALKALINE PHOSPHATASE [1]: 397.33 u/L
- ASPARTATE AMINOTRANSFERASE [1]: 73.67 u/L
- BLOOD UREA NITROGEN [1]: 17 mg/dL
- CARBON DIOXIDE [1]: 29 mmol/L
- CHLORIDE [1]: 101 MEQ/L
- CHOLESTEROL [1]: 78.67 mg/dL
- CREATINE PHOSPHOKINASE [1]: 314.67 u/L
- CREATININE [1]: 0.18 mg/dL
- GLUCOSE [1]: 149 mg/dL
- LIPASE [1]: 10 u/L
- PHOSPHORUS [1]: 13.43 mg/dL
- POTASSIUM [1]: 6.7 MEQ/L
- SODIUM [1]: 144.77 MEQ/L
- TOTAL BILIRUBIN [1]: 0.2 mg/dL
- TOTAL PROTEIN [1]: 5.6 G/DL
- URIC ACID [1]: 1.33 mg/dL
- ABSOLUTE BASOPHIL [2]: 0 CELLS/uL
- ABSOLUTE EOSINOPHIL [2]: 0 CELLS/uL
- ABSOLUTE LYMPHOCYTE [2]: 11391.33 CELLS/uL
- ABSOLUTE MONOCYTE [2]: 180.33 CELLS/uL
- ABSOLUTE SEGMENTED NEUTROPHIL [2]: 2228.33 CELLS/uL
- BASOPHIL [2]: 0%
- EOSINOPHIL [2]: 0%
- ERYTHROCYTE COUNT [2]: 5.65 x10E6/uL
- HEMATOCRIT [2]: 35.6%
- HEMOGLOBIN [2]: 13.2 G/DL
- LEUKOCYTE COUNT [2]: 13.8 x10E3/uL
- LYMPHOCYTE [2]: 82.33%
- MEAN CORPUSCULAR HEMOGLOBIN [2]: 23.37 pg
- MEAN CORPUSCULAR HEMOGLOBIN CONCENTRATION [2]: 37.07 G/DL
- MEAN CORPUSCULAR VOLUME [2]: 62.97 fL
- MONOCYTE [2]: 1.33%
- NEUTROPHIL [2]: 16.33%
- NUCLEATED RED BLOOD CELLS [2]: 0.33 /100WBC
- PLATELET COUNT [2]: 1291 x10E3/uL
- ALANINE AMINOTRANSFERASE [2]: 52.67 u/L
- ALBUMIN [2]: 4.07 G/DL
- ALKALINE PHOSPHATASE [2]: 368.67 u/L
- ASPARTATE AMINOTRANSFERASE [2]: 80 u/L
- BLOOD UREA NITROGEN [2]: 14 mg/dL
- CARBON DIOXIDE [2]: 27.67 mmol/L
- CHLORIDE [2]: 102.67 MEQ/L
- CHOLESTEROL [2]: 83 mg/dL
- CREATINE PHOSPHOKINASE [2]: 155.33 u/L
- CREATININE [2]: 0.26 mg/dL
- GLUCOSE [2]: 153.33 mg/dL
- LIPASE [2]: 11.33 u/L
- PHOSPHORUS [2]: 13.73 mg/dL
- POTASSIUM [2]: 6.83 MEQ/L
- SODIUM [2]: 146 MEQ/L
- TOTAL BILIRUBIN [2]: 0.2 mg/dL
- TOTAL PROTEIN [2]: 5.83 G/DL
- URIC ACID [2]: 1.7 mg/dL
- ABSOLUTE BASOPHIL [3]: 0 CELLS/uL
- ABSOLUTE EOSINOPHIL [3]: 0 CELLS/uL
- ABSOLUTE LYMPHOCYTE [3]: 12645 CELLS/uL
- ABSOLUTE MONOCYTE [3]: 541.67 CELLS/uL
- ABSOLUTE SEGMENTED NEUTROPHIL [3]: 1413.33 CELLS/uL
- BASOPHIL [3]: 0%
- EOSINOPHIL [3]: 0%
- ERYTHROCYTE COUNT [3]: 5.27 x10E6/uL
- HEMATOCRIT [3]: 34.07%
- HEMOGLOBIN [3]: 12.83 G/DL
- LEUKOCYTE COUNT [3]: 14.6 x10E3/uL
- LYMPHOCYTE [3]: 87%
- MEAN CORPUSCULAR HEMOGLOBIN [3]: 24.37 pg
- MEAN CORPUSCULAR HEMOGLOBIN CONCENTRATION [3]: 37.77 G/DL
- MEAN CORPUSCULAR VOLUME [3]: 64.5 fL
- MONOCYTE [3]: 3.67%
- NEUTROPHIL [3]: 9.33%
- NUCLEATED RED BLOOD CELLS [3]: 0.33 /100WBC
- PLATELET COUNT [3]: 1063 x10E3/uL
- ALANINE AMINOTRANSFERASE [3]: 45.33 u/L
- ALBUMIN [3]: 4.27 G/DL
- ALKALINE PHOSPHATASE [3]: 387.67 u/L
- ASPARTATE AMINOTRANSFERASE [3]: 114 u/L
- BLOOD UREA NITROGEN [3]: 22.33 mg/dL
- CARBON DIOXIDE [3]: 21.67 mmol/L
- CHLORIDE [3]: 99.67 MEQ/L
- CHOLESTEROL [3]: 67.33 mg/dL
- CREATINE PHOSPHOKINASE [3]: 1341.67 u/L
- CREATININE [3]: 0.51 mg/dL
- GLUCOSE [3]: 217 mg/dL
- LIPASE [3]: 11.67 u/L
- PHOSPHORUS [3]: 14.5 mg/dL
- POTASSIUM [3]: 7.21 MEQ/L
- SODIUM [3]: 143.73 MEQ/L
- TOTAL BILIRUBIN [3]: 0.17 mg/dL
- TOTAL PROTEIN [3]: 6.07 G/DL
- URIC ACID [3]: 2.67 mg/dL
